# Assay results taken from patent US20120253078A1, “Agent for Improving Carcass Performance in Finishing Hogs” (IGENE BIOTECHNOLOGY, INC., priority 2007, published 2012).
# Legend:
# [1] = Growth performance of finishing pigs fed increasing levels of astaxanthin (d 0 to 26); format: in vivo, pigs (barrows, PIC TR4×C22 cross); details: for ADFI / ADG / F/G / Final Wt.: d 0 to 26
# Protocol: Procedures used in the experiment were approved by the Kansas State University Animal Care and Use Committee. The project was conducted at the KSU Swine Teaching and Research Farm. Pigs were housed in an environmentally regulated finishing building with pens over a totally slatted floor that provided approximately 8 ft^2 per pig. Each pen was equipped with a dry self-feeder and one nipple waterer, thereby providing ad libitum access to feed and water. The facility was a mechanically ventilated room with a pull-plug manure storage pit.
# (§1) Forty-eight barrows (PIC, TR4×C22 cross) averaging 215 lb were used in the study. Pigs were blocked by weight and randomly allotted to one of the four dietary treatments with two pigs per pen and six pens per treatment. Experimental diets were provided in meal form and astaxanthin (0, 5, 10 and 20 ppm) was added to the control diet at the expense of corn starch to achieve the dietary treatments (Table 1). In Table 1, CP is crude protein; P is […]; ME is metabolizable energy; and TID is true ileal digestible. Pigs and feeders were weighed on day (d) 0, 7, 14, 21 and 26 to determine the growth performance criteria of average daily gain (ADG), average daily food intake (ADFI), and feed conversion (F/G).
# (§2) Data were analyzed as a randomized complete block design using the PROC MIXED procedure of SAS with pen as the experimental unit. Linear and quadratic polynomial contrasts were used to determine the effect of increasing astaxanthin.
# (§3) The source of natural astaxanthin used in the example was Phaffia rhodozyma which is commercially available under the trade name Aquasta® containing 10,000 ppm astaxanthin, by weight.
# [2] = Carcass characteristics and loin eye color of finishing pigs fed astaxanthin; format: in vivo, pigs (barrows, PIC TR4×C22 cross); details: for Loin eye area / Loin eye color CIE L* / Loin eye color CIE a* / Loin eye color CIE b*: 10th rib; for Loin eye area / Backfat-1st rib / Backfat-10th rib / Backfat-Last Lumbar / Backfat-Last rib: 24-h postmortem; for Loin eye color CIE L* / Loin eye color CIE a* / Loin eye color CIE b*: 30 minutes bloom time
# Protocol: as §1
# On d 27, one pig per pen was transported to the KSU meats lab for humane slaughter and collection of carcass data. Hot carcass weight was collected immediately after evisceration. First-rib, tenth-rib, last-rib, and last-lumbar backfat depth, as well as loin eye area at the 10th-rib, were collected from the right half of each carcass 24-h postmortem. Additionally, each carcass was evaluated for loin muscle color at the 10th-rib with a Hunter MiniScan instrument to measure CIE L*, a* and b*, known color parameters relating to brightness, red-to-green coloration and yellow-to-blue coloration, as known in the art. That was performed after 30 minutes of bloom time, the time to oxygenate myoglobin thereby obtaining maximal pink or red coloration, for each loin muscle surface.
# as §2, §3
# [3] = cited from earlier work
# [4] = 5 ppm astaxanthin in the feed; cited from earlier work
# [5] = astaxanthin 5, 10, 20 ppm in diet
# [6] = 5 ppm astaxanthin in diet for 26 d
# [7] = 5 ppm astaxanthin in diet for 26 d before slaughter
# [8] = 10 ppm astaxanthin in diet for 26 d
# [9] = 10 ppm astaxanthin in diet for 26 d before slaughter
# [10] = 20 ppm astaxanthin in diet for 26 d
# [11] = 20 ppm astaxanthin in diet for 26 d before slaughter
compound,measurement,setting,value
"CC1=C(/C=C/C(C)=C/C=C/C(C)=C/C=C/C=C(C)/C=C/C=C(C)/C=C/C2=C(C)C(=O)C(O)CC2(C)C)C(C)(C)CC(O)C1=O (stereo not drawn) [Astaxanthin, 3,3′-dihydroxy-β,β-carotene-4,4′dione]",ADFI,[1]; 5 ppm astaxanthin in diet,6.76 lb
same,ADG,[1]; 5 ppm astaxanthin in diet,2.23 lb
same,F/G,[1]; 5 ppm astaxanthin in diet,3.05
same,Final Wt.,[1]; 5 ppm astaxanthin in diet,273 lb
same,ADFI,[1]; 10 ppm astaxanthin in diet,6.24 lb
same,ADG,[1]; 10 ppm astaxanthin in diet,2.03 lb
same,F/G,[1]; 10 ppm astaxanthin in diet,3.08
same,Final Wt.,[1]; 10 ppm astaxanthin in diet,268 lb
same,ADFI,[1]; 20 ppm astaxanthin in diet,6.20 lb
same,ADG,[1]; 20 ppm astaxanthin in diet,1.99 lb
same,F/G,[1]; 20 ppm astaxanthin in diet,3.16
same,Final Wt.,[1]; 20 ppm astaxanthin in diet,267 lb
same,ADG versus control pigs,[1]; [5],not significantly different
same,F/G versus control pigs,[1]; [5],not significantly different
same,"average daily feed intake, trend","[1]; with increasing level of astaxanthin (0, 5, 10, 20 ppm)",tended to decrease
same,"percent fat-free lean (PFFL), comparison of doses","[2]; 5 or 10 ppm astaxanthin versus 0 or 20 ppm, p<0.10",greatest percent fat-free lean
same,Loin eye area,[2]; [6],7.72 sq. in.
same,Loin eye color CIE L*,[2]; [6],55.3
same,Loin eye color CIE a*,[2]; [6],10.1
same,Loin eye color CIE b*,[2]; [6],14.8
same,Backfat-1st rib,[2]; [6],1.40 in.
same,Backfat-10th rib,[2]; [6],0.65 in.
same,Backfat-Last Lumbar,[2]; [6],0.60 in.
same,Backfat-Last rib,[2]; [6],0.65 in.
same,Fat-Free Lean,[2]; [7],55.6%
same,Hot Carcass Wt.,[2]; [7],192 lb
same,Live Wt.,[2]; [7],273 lb
same,Standardized Fat-Free Lean,[2]; [7],107 lb
same,Yield,[2]; [7],70.6%
same,Loin eye area,[2]; [8],7.58 sq. in.
same,Loin eye color CIE L*,[2]; [8],58.9
same,Loin eye color CIE a*,[2]; [8],8.2
same,Loin eye color CIE b*,[2]; [8],14.4
same,Backfat-1st rib,[2]; [8],1.33 in.
same,Backfat-10th rib,[2]; [8],0.65 in.
same,Backfat-Last Lumbar,[2]; [8],0.56 in.
same,Backfat-Last rib,[2]; [8],0.67 in.
same,Fat-Free Lean,[2]; [9],55.5%
same,Hot Carcass Wt.,[2]; [9],191 lb
same,Live Wt.,[2]; [9],271 lb
same,Standardized Fat-Free Lean,[2]; [9],106 lb
same,Yield,[2]; [9],70.6%
same,Loin eye area,[2]; [10],7.28 sq. in.
same,Loin eye color CIE L*,[2]; [10],56.2
same,Loin eye color CIE a*,[2]; [10],10.3
same,Loin eye color CIE b*,[2]; [10],15.1
same,Backfat-1st rib,[2]; [10],1.41 in.
same,Backfat-10th rib,[2]; [10],0.70 in.
same,Backfat-Last Lumbar,[2]; [10],0.57 in.
same,Backfat-Last rib,[2]; [10],0.64 in.
same,Fat-Free Lean,[2]; [11],54.5%
same,Hot Carcass Wt.,[2]; [11],189 lb
same,Live Wt.,[2]; [11],270 lb
same,Standardized Fat-Free Lean,[2]; [11],103 lb
same,Yield,[2]; [11],70.3%
same,"carcass traits and meat quality, benefit over lower doses","[2]; 20 ppm astaxanthin in the diet, optimum 5 to 10 ppm",no additional benefit
same,"backfat depth measured at the first rib, tenth rib and last rib, versus control","[2]; pigs fed astaxanthin, p<0.10",less backfat depth
same,effect on production performance,"[3]; 0, 1.5 and 3.0 ppm astaxanthin in the diet",no significant effect
same,"effect on dressing percentage, backfat thickness and loin muscle area","[3]; with increasing dietary astaxanthin level (0, 1.5, 3.0 ppm)",linear effect
same,"performance of sows (stillborn in the litter, parity)",[4],improved performance of sows
